Laboratory results as given in publication PMC5833749 (Cell Death & Disease, 2018).
“And” between values parts separate entries of the source, which are not always exact repeats. Identical values can stand only once. “Also recorded” adds a separate entry of the source. Like-named read-outs stand apart in the source and are kept apart here.

Columns and labels:
L929sAhFas cells [1] = experiment: mTNF-induced RIPK1-dependent necroptosis; format: cell-based, murine
Procedure: (§1) Data represent mean values ±S.E.M., n = 6. […] Data represent mean values ±S.E.M. (g–l).
(§2) Data were analysed using the Columbus software package (PerkinElmer).

L929sAhFas cells [2] = experiment: mTNF+zVAD.fmk-induced necroptosis (sensitising condition)
L929sAhFas cells [3] = experiment: High-content imaging of cell growth, nuclear area and nuclear roundness (cytokinesis defects); format: cell-based, murine; conditions: for Cytokinesis defects (nuclear roundness, nuclear area): 10 µM, 24 h
Procedure: as §1, §2

hAurora kinase B = molecular target: T1, hAurora kinase B (Homo sapiens, UniProt Q96GD4); experiment: In vitro ADP-Glo kinase assay; format: biochemical; conditions: dose response, Fig. 3c
T1 construct: purchased Promega V9181
T1 sequence (Q96GD4 whole entry): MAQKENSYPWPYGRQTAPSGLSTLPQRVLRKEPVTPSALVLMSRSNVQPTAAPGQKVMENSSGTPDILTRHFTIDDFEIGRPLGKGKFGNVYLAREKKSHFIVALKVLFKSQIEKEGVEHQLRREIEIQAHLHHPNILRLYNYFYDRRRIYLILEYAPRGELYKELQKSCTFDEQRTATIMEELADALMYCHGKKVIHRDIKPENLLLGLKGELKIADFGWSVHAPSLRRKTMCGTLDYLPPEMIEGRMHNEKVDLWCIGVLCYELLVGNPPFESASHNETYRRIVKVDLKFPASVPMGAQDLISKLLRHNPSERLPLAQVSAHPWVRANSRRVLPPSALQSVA
Procedure: (§3) Compounds (concentrations as indicated) were co-incubated with recombinant hRIPK1 (100 nM) (produced in our laboratory), hAurora kinase A (25 nM) or hAurora kinase B (25 nM) (ADP-Glo^TM kinase assay + Aurora A/Aurora B kinase enzyme system, Promega, V9081 and V9181). For hRIPK1, the kinase assay buffer (2×) contains 50 mM HEPES pH 7.5, 30 mM MgCl2, 50 mM NaCl, 0.5 mg/mL BSA, 0.02% CHAPS and 1 mM DTT. For the Aurora kinases, the kinase assay buffer was used from the promega assay (V9081, V9181). Next, the in vitro ADP-Glo^TM kinase assay (Promega, V6930) was used to determine kinase activity. The assay was performed according to the manufacturer’s protocol. The primary kinase reaction was carried out for 4 h at room temperature and a 2:2:1 ratio of kinase reaction volume to ADP-Glo reagent volume to kinase detection reagent volume was used.

hAurora kinase A = molecular target: T2, hAurora kinase A (Homo sapiens, UniProt O14965); experiment: In vitro ADP-Glo kinase assay; format: biochemical; conditions: dose response, Fig. 3b
T2 construct: purchased Promega V9081
T2 sequence (O14965 1-403): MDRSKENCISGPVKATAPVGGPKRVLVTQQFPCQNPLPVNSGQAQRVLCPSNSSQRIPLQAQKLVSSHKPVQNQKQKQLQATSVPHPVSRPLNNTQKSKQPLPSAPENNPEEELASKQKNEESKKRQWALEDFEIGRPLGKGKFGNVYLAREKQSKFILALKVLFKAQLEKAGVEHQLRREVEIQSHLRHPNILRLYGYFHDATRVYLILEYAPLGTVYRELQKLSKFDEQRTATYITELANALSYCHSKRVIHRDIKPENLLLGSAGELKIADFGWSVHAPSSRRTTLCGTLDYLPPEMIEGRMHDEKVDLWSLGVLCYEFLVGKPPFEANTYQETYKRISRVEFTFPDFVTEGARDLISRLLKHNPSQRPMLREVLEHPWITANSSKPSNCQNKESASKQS
Procedure: as §3

recombinant hRIPK1 = molecular target: T3, recombinant hRIPK1 (Homo sapiens, UniProt Q13546); experiment: In vitro ADP-Glo kinase assay; format: biochemical; conditions: dose response, Fig. 3a
T3 construct: made in house
T3 sequence (Q13546 1-671): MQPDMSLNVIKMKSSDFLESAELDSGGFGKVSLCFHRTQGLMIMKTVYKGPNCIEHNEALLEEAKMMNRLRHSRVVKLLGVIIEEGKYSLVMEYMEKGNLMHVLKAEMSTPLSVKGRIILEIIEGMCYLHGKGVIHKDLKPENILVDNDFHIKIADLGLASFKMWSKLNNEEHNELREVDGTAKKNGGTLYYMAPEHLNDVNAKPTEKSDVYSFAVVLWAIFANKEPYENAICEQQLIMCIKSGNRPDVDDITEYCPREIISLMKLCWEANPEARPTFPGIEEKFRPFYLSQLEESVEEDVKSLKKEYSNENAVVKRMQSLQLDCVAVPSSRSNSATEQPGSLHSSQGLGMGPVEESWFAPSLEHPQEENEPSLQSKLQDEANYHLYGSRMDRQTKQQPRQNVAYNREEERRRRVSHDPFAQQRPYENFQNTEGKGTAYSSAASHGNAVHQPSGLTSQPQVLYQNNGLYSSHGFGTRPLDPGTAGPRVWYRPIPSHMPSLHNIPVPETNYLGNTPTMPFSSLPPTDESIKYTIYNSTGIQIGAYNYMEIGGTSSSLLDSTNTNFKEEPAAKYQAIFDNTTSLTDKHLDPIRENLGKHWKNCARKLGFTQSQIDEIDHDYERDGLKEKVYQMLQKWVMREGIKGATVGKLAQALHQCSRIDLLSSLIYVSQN
Procedure: as §3

L929sAhFas cells [4] = experiment: Cellular screening of Tozasertib analogues for cytokinesis defects and inhibition of necroptosis; format: cell-based, murine; conditions: 3 µM, 0.5 h or 24 h pre-treatment
Procedure: Next, cells were left unstimulated or stimulated with mTNF (40 ng/mL) + zVAD.fmk (10 µM) for […]. Proliferation, nuclear area and cell death were quantified by staining the cells with propidium iodide (PI) (3 µM) and Hoechst (1 µM) for image analysis with BD pathway. […] Significance was analysed using repeated measurements data analysis. […] Cells were stimulated for 7 h with mTNF and 4 h with mTNF + zVAD.fmk. Data represent mean values ±S.E.M. (n = 2). […] Dose responses were included in the screening (b–c) assay conditions.
as §2

MEF cells = experiment: RIPK1-dependent apoptosis (hTNF+Tak1i); format: cell-based, murine; conditions: 10 µM, pre-treated 1 h, hTNF 20 ng/mL + Tak1i 1 µM
[5] = test system: endogenous Aurora A (Aur A) and B (Aur B); experiment: Immunoblot of autophosphorylation of endogenous Aurora A and B; format: cell-based, murine; conditions: 10 µM, 16 h
Procedure: Then, a clonogenic assay was performed to determine colony-forming capacity. Quantification was performed using ImageJ. […] Data represent mean values ±S.E.M., n = 6. […] Data represent mean values ±S.E.M. (g–l).
Antibodies used were anti-phospho-Aurora A (Thr288)/Aurora B (Thr232)/Aurora C (Thr198) (D13A11) (Cell Signaling, #2914, Danvers, MA, USA), anti-tubulin-HRP (abcam, ab21058, Cambridge, UK). After treatments, cells were washed twice with PBS and lysed with 2× Laemmli buffer directly. These samples were used for SDS-PAGE and immunoblotting. Tubulin was used as loading control.

L929sAhFas cells [6] = experiment: RIPK1-independent apoptosis by agonistic anti-Fas antibody; format: cell-based, murine; conditions: 10 µM, pre-treated 1 h, agonistic anti-Fas antibody 250 ng/mL
L929sAhFas cells [7] = experiment: Cytotoxicity of the compound alone (% PI-negative cells); format: cell-based, murine; conditions: 10 µM or lower, 24 h
Text: Supplementary Figure 1. […] Data represent mean ± S.E.M. of 3 independent experiment. One-way Anova with Tukey correction for multiple testing has been performed.

L929sAhFas cells [8] = experiment: Clonogenic assay (colony-forming capacity); format: cell-based, murine
Procedure: […]. […] Data represent mean values ±S.E.M., n = 6. […] […]. […] Data represent mean values ±S.E.M. (g–l).
Next, treatment was removed and 50 cells/condition were seeded. After 10 days, cells were fixed with 4% PFA for 10 min. After fixation, cells were stained with a 0.01% crystal violet solution for 1 h. Cells were washed with PBS, dried overnight and images were taken. Colonies were counted using ImageJ.

HT29 cells = experiment: hTNF+Tak1i+zVAD.fmk-induced necroptosis
recombinant mRIPK3 = recombinant mRIPK3 (Mus musculus, UniProt Q9QZL0); experiment: In vitro ADP-Glo kinase assay; format: biochemical; conditions: 10 µM; mRIPK3 15 nM
Chain of recombinant mRIPK3 (Q9QZL0 whole entry): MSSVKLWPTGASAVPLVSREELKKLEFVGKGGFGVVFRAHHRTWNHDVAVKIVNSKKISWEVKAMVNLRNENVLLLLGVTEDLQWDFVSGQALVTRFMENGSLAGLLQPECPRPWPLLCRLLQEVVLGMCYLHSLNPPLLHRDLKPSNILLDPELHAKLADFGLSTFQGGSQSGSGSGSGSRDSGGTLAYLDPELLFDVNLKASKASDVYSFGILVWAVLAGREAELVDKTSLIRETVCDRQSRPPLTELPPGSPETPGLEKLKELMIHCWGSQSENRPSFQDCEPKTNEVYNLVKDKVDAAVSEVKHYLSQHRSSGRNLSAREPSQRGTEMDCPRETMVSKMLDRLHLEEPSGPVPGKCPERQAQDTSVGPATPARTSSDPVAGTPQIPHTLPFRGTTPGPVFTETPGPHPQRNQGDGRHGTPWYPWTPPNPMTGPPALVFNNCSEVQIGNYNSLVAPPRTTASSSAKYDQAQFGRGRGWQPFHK
Procedure: Supplementary Figure 5. […] An in vitro ADP-Glo kinase assay using recombinant mRIPK3 (15 nM) (A) was performed. […] Data represent mean value ± S.E.M. of 3 independent experiment. One-way ANOVA with Tukey correction for multiple testing has been performed (**** p<0.0001 ).

[9] = Mus musculus, read-out: Necroptosis IC50, Aurora inhibitor panel, dose-response 10-0.0022 µM, pre-treated 1 h, mTNF 20 ng/mL 5 h, nonlinear regression
[10] = pre-treated 1 h, mTNF 20 ng/mL 5 h

CO[C@@H](C(=O)N1Cc2n[nH]c(NC(=O)c3ccc(N4CCN(C)CC4)cc3)c2C1)c1ccccc1 [Danusertib]
IC50 (L929sAhFas cells [1]; [9]): 13900 nM
Inhibition of TNF-induced necroptosis by Aurora kinase inhibitors (in words) (L929sAhFas cells [1]; [10]): not able to protect

CN1C(=O)NC(Cc2c[nH]c3c(Cl)cccc23)C1=O (centres unmarked) [Nec-1s, Necrostatin-1s]
IC50 (L929sAhFas cells [2]; read-out: Necroptosis L929-mTNF+zVAD IC50, pre-treatment 1 h, necroptosis treatment 3 h, Probit analysis): 240 nM
Cytokinesis defects (nuclear roundness, nuclear area) (L929sAhFas cells [3]): does not result in cytokinesis defects
Inhibition of hAur B kinase activity (in words) (hAurora kinase B): only inhibits recombinant hRIPK1
Inhibition of hAur A kinase activity (in words) (hAurora kinase A): only inhibits recombinant hRIPK1
Inhibition of hRIPK1 kinase activity (in words) (recombinant hRIPK1): only inhibits recombinant hRIPK1
IC50 (L929sAhFas cells [1]; Aurora inhibitor panel, dose-response 10-0.0022 µM, pre-treated 1 h, mTNF 20 ng/mL 5 h, nonlinear regression, read-out: Necroptosis IC50): 367 nM
IC50 (L929sAhFas cells [1]; pre-treatment 1 h, mTNF 20 ng/mL 5 h, Probit analysis, read-out: Necroptosis L929-mTNF IC50): 149 nM

O=C(Nc1cccc(Cl)c1)Nc1ncc(CCNc2ncnc3ccsc23)s1 [SNS-314]
IC50 (L929sAhFas cells [1]; [9]): 400 nM
IC50 (L929sAhFas cells [1]; read-out: Necroptosis IC50, Aurora inhibitor panel, dose-response 10-0.0022 µM, pre-treated 1 h, mTNF 20 ng/mL 5 h, nonlinear regression): 399 nM

CCN(CCCOc1ccc2c(Nc3cc(CC(=O)Nc4cccc(F)c4)n[nH]3)ncnc2c1)CCOP(=O)(O)O [Barasertib]
Inhibition of TNF-induced necroptosis by Aurora kinase inhibitors (in words) (L929sAhFas cells [1]; [10]): not able to protect

O=C(O)c1ccc(Nc2ncc3c(n2)-c2ccc(Cl)cc2C(c2c(F)cccc2F)=NC3)cc1 [MLN-8054]
Cytokinesis and proliferation in the analogue screening (in words) (L929sAhFas cells [4]): cytokinesis inhibition
Necroptosis in the analogue screening (in words) (L929sAhFas cells [4]; mTNF 40 ng/mL + zVAD.fmk 10 µM 3 h): without affecting RIPK1-dependent cell death

Cc1cc(Nc2cc(N3CCN(C)CC3)nc(Sc3ccc(NC(=O)C4CC4)cc3)n2)[nH]n1 [Tozasertib]
Inhibition of RIPK1-dependent apoptosis (MEF cells): inhibits RIPK1-dependent apoptosis
Autophosphorylation of endogenous Aurora A and B [5]: inhibition of autophosphorylation
Protective effect against necroptosis at 10 µM (L929sAhFas cells [2]; 10 µM, mTNF+zVAD.fmk 3 h): partially lost
Protection against necroptosis in L929sAhFas (in words) (L929sAhFas cells [2]; pre-treated 1 h, stimulation 3 h, sensitised condition (mTNF+zVAD.fmk) per text): protect against necroptosis
Mean nuclear area at highest concentration (L929sAhFas cells [3]; 48 h, highest concentration): 250 µm^2
Mean nuclear roundness at highest concentration (L929sAhFas cells [3]; 48 h, 0 = straight line, 1 = perfect circle): 0.80
EC50 (L929sAhFas cells [3]; Mus musculus, 48 h, read-out: Nuclear area (values represent EC50), compound treatment 48 h, Probit analysis): 554 nM
IC50 (L929sAhFas cells [3]; Mus musculus, 48 h, read-out: Nuclear roundness IC50, compound treatment 48 h, Probit analysis): 1640 nM
EC50 (L929sAhFas cells [3]; Mus musculus, read-out: Cytokinesis EC50 (nuclear area), Aurora inhibitor panel, dose-response 10-0.0022 µM, pre-treated 1 h, mTNF 20 ng/mL 5 h, nonlinear regression): 591 nM
Inhibition of RIPK1-independent (Fas-mediated) apoptosis (L929sAhFas cells [6]): no inhibition is observed
Toxicity of the compound on itself (L929sAhFas cells [7]): not cytotoxic; also recorded: not toxic
Concentration from which colony formation is impaired (L929sAhFas cells [8]; 24 h treatment): ≥ 0.2 µM
IC50 (L929sAhFas cells [8]; Mus musculus, 24 h, read-out: Clonogenicity IC50): 122 nM
Protective effect against necroptosis at 10 µM (HT29 cells; 10 µM, hTNF+Tak1i+zVAD.fmk 16 h): partially lost
Protection against necroptosis in HT29 (in words) (HT29 cells; pre-treated 1 h, hTNF+Tak1i+zVAD.fmk 17 h): protect against necroptosis
Inhibition of recombinant mRIPK3 kinase activity (recombinant mRIPK3): does not inhibit; also recorded: not able to inhibit
Protection against TNF-induced RIPK1-dependent necroptosis over time (L929sAhFas cells [1]; 3 µM, pre-treated 1 h, mTNF 20 ng/mL): protects
IC50 (L929sAhFas cells [1]; Mus musculus, L929, read-out: IC50 L929 TNF-induced necroptosis as given in the Discussion, condition not specified): 700 nM
IC50 (L929sAhFas cells [1]; read-out: Necroptosis L929-mTNF IC50, pre-treatment 1 h, mTNF 20 ng/mL 5 h, Probit analysis): 550 nM and 554 nM

CC(C)(C)C(=O)N1N=CC[C@H]1c1ccccc1 [GSK’963]
Cytokinesis defects (nuclear roundness, nuclear area) (L929sAhFas cells [3]): did not affect cytokinesis

Cc1csc(-c2nnc(Nc3ccc(Oc4ncccc4-c4ccnc(N)n4)cc3)c3ccccc23)c1 [AMG-900]
Inhibition of TNF-induced necroptosis by Aurora kinase inhibitors (in words) (L929sAhFas cells [1]; [10]): cannot inhibit necroptosis; also recorded: not able to protect
